# Assay results published in publication PMC11091863 (RSC Advances, 2024).
# Legend:
# α-glucosidase = assay: In vitro α-glucosidase inhibitory assay; type: biochemical; conditions: for α-Glucosidase activity: IC50 ± SD: DF = 100, five concentrations 10, 5, 1, 0.1, 0.01 μg mL^−1
# α-amylase = assay: In vitro α-amylase inhibitory assay; conditions: for IC50: read-out: The α-amylase activity: IC50 ± SD, DF = 100
# [1] = molecular target: T1, Human PPAR-γ (Peroxisome Proliferator-Activated Receptor Gamma) (Homo sapiens, UniProt P37231); assay: In vitro PPAR-γ transactivation assay; type: biochemical; conditions: for PPAR-γ Folds: folds compared to Pioglitazone (= 1)
# T1 sequence (P37231 1-505): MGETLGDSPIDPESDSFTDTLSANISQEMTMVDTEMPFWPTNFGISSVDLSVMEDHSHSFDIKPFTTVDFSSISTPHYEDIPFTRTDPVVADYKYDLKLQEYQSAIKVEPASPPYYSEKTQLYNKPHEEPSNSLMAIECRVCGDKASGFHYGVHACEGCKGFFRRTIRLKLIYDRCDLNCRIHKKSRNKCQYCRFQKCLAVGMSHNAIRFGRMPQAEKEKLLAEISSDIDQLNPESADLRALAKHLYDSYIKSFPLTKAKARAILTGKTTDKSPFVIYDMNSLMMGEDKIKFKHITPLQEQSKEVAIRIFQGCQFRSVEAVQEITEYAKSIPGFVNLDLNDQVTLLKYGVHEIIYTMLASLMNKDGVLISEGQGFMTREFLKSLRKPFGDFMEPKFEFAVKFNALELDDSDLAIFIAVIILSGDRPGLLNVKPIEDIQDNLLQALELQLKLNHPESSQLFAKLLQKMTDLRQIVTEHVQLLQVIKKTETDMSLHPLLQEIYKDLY
SMILES,α-Glucosidase activity: Inhibitory potential at 10 μg mL^−1 (α-glucosidase) [%],The α-amylase activity: Inhibitory percentage at 100 μg mL^−1 (α-amylase) [%],α-Glucosidase activity: IC50 ± SD (α-glucosidase) [µg/mL],IC50 [1] [µM],PPAR-γ Folds [1],"Increase of α-amylase inhibitory potency, fold (α-amylase; compound 2 relative to derivative 3) [fold]",IC50 (α-amylase) [µM]
"C[C@H]1O[C@H](O[C@H]2[C@H](O)[C@@H](O)[C@@H](O[C@H]3[C@H](O)[C@@H](O)C(O)O[C@@H]3CO)O[C@@H]2CO)[C@H](O)[C@@H](O)[C@@H]1N[C@H]1C=C(CO)[C@@H](O)[C@H](O)[C@H]1O (stereo partly drawn) [Acarbose, reference compound]",90.1,96.5,–,–,–,–,–
"N#Cc1cc2cc(S(N)(=O)=O)ccc2oc1=N [Compound 2, 3-Cyano-2-imino-2H-chromene-6-sulfonamide]",90.7,96.1,0.548 ± 0.02,12.6,~1.55,~8.31,1.76 ± 0.01
"N#CC(C#N)=C(N)c1cc2cc(S(N)(=O)=O)ccc2oc1=N [Compound 3, 3-(1-Amino-2,2-dicyanovinyl)-2-imino-2H-chromene-6-sulfonamide]",–,96,–,–,–,–,14.6 ± 0.16
"CC(=O)c1cc2cc(S(N)(=O)=O)ccc2oc1=O [Compound 4, 3-Acetyl-2-oxo-2H-chromene-6-sulfonamide]",–,94.2,–,–,–,–,8.55 ± 0.31
"CCOC(=O)c1cc2cc(S(N)(=O)=O)ccc2oc1=O [Compound 5, Ethyl 2-oxo-6-sulfamoyl-2H-chromene-3-carboxylate]",–,93.4,–,–,–,–,32.6 ± 0.33
"NS(=O)(=O)c1ccc2oc(=O)c(C(=O)Nc3ccc(F)cc3)cc2c1 [Compound 6, N-(4-fluorophenyl)-2-oxo-6-sulfamoyl-2H-chromene-3-carboxamide]",–,95.4,–,–,–,–,2.11 ± 0.03
"NS(=O)(=O)c1ccc2oc(=O)c(C(=O)Nc3cccc(C(F)(F)F)c3)cc2c1 [Compound 7, 2-Oxo-6-sulfamoyl-N-(3-(trifluoromethyl)phenyl)-2H-chromene-3-carboxamide]",–,96.2,–,–,–,–,4.39 ± 0.06
"NS(=O)(=O)c1ccc2oc(=O)c(C(=O)Nc3ccc(Cl)cc3)cc2c1 [Compound 8, N-(4-chlorophenyl)-2-oxo-6-sulfamoyl-2H-chromene-3-carboxamide]",–,95.4,–,–,–,–,4.23 ± 0.06
"CCOC(=O)c1ccc(NC(=O)c2cc3cc(S(N)(=O)=O)ccc3oc2=O)cc1 [Compound 9, Ethyl 4-(2-oxo-6-sulfamoyl-2H-chromene-3-carboxamido)benzoate]",83.8,96.6,2.44 ± 0.09,8.9,~1.32,–,1.08 ± 0.02
